# Legend:
# [1] = LNP size and PDI by dynamic laser light scattering; assay type: physicochemical; details: LNP: 50% cationic lipid, 38.5% cholesterol, 10% DSPC, 1.5% DMG-PEG2000; Ffluc mRNA
# Outline: (§1)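 LNPs of cationic lipid/cholesterol/DSPC/DMG-PEG2000 at 50/38.5/10/1.5 mol% in ethanol, mixed with Ffluc mRNA at 0.2 mg/mL in 10 mM pH 4.0 citrate via T-mixer at 40 mL/min. Dialyzed overnight against 50 mM Tris-buffered saline pH 7.4 and sieved; PDI by dynamic light scattering, encapsulation by Ribogreen.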
# [2] = mRNA encapsulation efficiency of LNP by Ribogreen assay; assay type: physicochemical; details: LNP: 50% cationic lipid, 38.5% cholesterol, 10% DSPC, 1.5% DMG-PEG2000; Ffluc mRNA
# Outline: as §1
# [3] = tested on: mice; experiment: In vivo delivery of Ffluc mRNA LNP in mice, intramuscular administration, luminescence relative to MC3; set-up: species or system mice (female Balb/C); details: fold change in luminescence intensity relative to MC3; 50 μL of 0.1 mg/mL mRNA LNP into right thigh; 6 h after injection
# Procedure: The prepared encapsulation solution was applied to mice in the following manner, and its delivery efficiency in mice was tested. Among them, DLin-MC3-DMA (MC3) was a cationic liposome for delivering small nucleic acids that was approved by the FDA for marketing in 2018, which has high nucleic acid drug delivery efficiency and biosafety, and was usually used as the industry gold standard in the screening process of cationic lipids. In the evaluation of mice experiments, the ratio of nucleic acid delivery efficiency normalized to MC3 was greater than 0.1, which was considered to be a cationic lipid with high delivery efficiency.
# The LNP solution was diluted with 50 mM TBS, pH 7.4 to a concentration of 0.1 mg/mL mRNA.
# 2. The mice involved in this study were female Balb/C, weighing 18-22 g, 6-8 weeks old, with 5 mice in each group.
# 3. The dosing solution was kept at 4° C. prior to injection.
# 4. 50 μL of LNP solution was injected into the right thigh of the mice.
# 5. The mice were injected intraperitoneally with 200 μL of 1.5 mg/mL D-luciferin solution 6 h after injection.
# 6. The in vivo luminescence images of the mice were obtained using the IVIS system (Aniview).
# 7. The luminescence intensity of each mice was measured using Aniview software.
# 8. MC3 lipid nanoparticles were used as a positive control. The in vivo efficacy of each cationic lipid tested was recorded as the fold change in luminescence intensity relative to MC3 (ratio normalized to MC3).
# [4] = tested on: mice; experiment: In vivo delivery of Ffluc mRNA LNP in mice, intravenous administration, luminescence relative to MC3; set-up: species or system mice (female Balb/C); details: fold change in luminescence intensity relative to MC3; 0.06 mg/kg tail vein; 6 h after injection
# Outline: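 Female Balb/C mice (18-22 g, 6-8 weeks, n=5) received Ffluc mRNA LNP at 0.06 mg/kg by tail vein in 50 mM TBS pH 7.4. Six hours later, intraperitoneal D-luciferin was given and whole-body luminescence imaged, with each lipid reported as fold change relative to MC3 LNP.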
PDI [1],Size (nm) [1] [nm],Encapsulation Rate [2] [%],SMILES,In Vivo Efficacy Normalized To Mc3 In Mice (Intramuscular Injection) [3],In Vivo Efficacy Normalized To Mc3 In Mice (Intravenous Injection) [4]
0.1437,90.31,93,"CCCCCC/C(=C/C(=O)OCCCCCCCCCCN(CCCO)CCCCCCCCCCOC(=O)/C=C(\CCC)CCCCCC)CCC [CPL-148, ((3-hydroxypropyl)azanediyl)bis(decane-10,1-diyl) (2E,2′E)-bis(3-propylnon-2-enoate)]",2.56,2.15
0.05,72.18,95,"CCCCCC/C(=C\C(=O)OCCCCCCCCCCN(CCCO)CCCCCCCCCCOC(=O)/C=C(/CCCC)CCCCCC)CCCC [CPL-152, ((3-hydroxypropyl)azanediyl)bis(decane-10,1-diyl) (2Z,2′Z)-bis(3-butylnon-2-enoate)]",2.62,2.03
0.18,112,97,"CCCCCC/C(=C/C(=O)OCCCCCCCCCCCN(CCCO)CCCCCCCCCCCOC(=O)/C=C(\CCCC)CCCCCC)CCCC [CPL-174-01, ((3-hydroxypropyl)azanediyl)bis(undecane-11,1-diyl) (2E,2′E)-bis(3-butylnon-2-enoate)]",1.20,2.32
0.1334,66.8,86,"CCCCCCCCCC/C(=C/C(=O)OCCCCCCCCCCCN(CCCO)CCCCCCCCCCCOC(=O)/C=C(\CCCCC)CCCCCCCCCC)CCCCC [CPL-180-01, ((3-hydroxypropyl)azanediyl)bis(undecane-11,1-diyl) (2E,2′E)-bis(3-pentyltridec-2-enoate)]",0.72,9.31
0.1225,70.36,85,"CCCCCC/C(=C/C(=O)OCCCCCCCCN(CCCO)CCCCCCCCOC(=O)/C=C(\CCCC)CCCCCC)CCCC [CPL-456-01, ((3-hydroxypropyl)azanediyl)bis(octane-8,1-diyl) (2E,2′E)-bis(3-butylnon-2-enoate)]",5.51,7.36
0.078,73,90,"CCCCCC/C(=C/C(=O)OCCCCCCCCN(CCCCO)CCCCCCCCOC(=O)/C=C(\CCCC)CCCCCC)CCCC [CPL-457-01, ((4-hydroxybutyl)azanediyl)bis(octane-8,1-diyl) (2E,2′E)-bis(3-butylnon-2-enoate)]",12.13,5.49

# Source: patent US20250214925A1, “CATIONIC LIPID, LIPOSOME, LIPID NANOPARTICLE, AND USE” (CARCELL BIOPHARMA LTD., priority 2022, published 2025)
